Here are results for 21 compounds from ChEMBL document CHEMBL6083236, “Identification of novel diarylpyrimidine derivatives as potent HIV-1 non-nucleoside reverse transcriptase inhibitors against wild-type and K103N mutant viruses” (Eur J Med Chem, 2024).

For data set [1], the system named is Human immunodeficiency virus 1. In words: Antiviral activity against wild type HIV1 IIIB infected in human MT4 cells assessed as reduction in virus induced cytopathic effect incubated for 5 days by Spectrophotometric based MTT assay. The format is functional, organism-based. The settings on record: Human immunodeficiency virus 1, IIIB, MT4, 120 h.
Data set [2] relates to Human immunodeficiency virus 1. In words: Antiviral activity against HIV1 harboring RES056 mutant infected in human MT4 cells assessed as reduction in virus induced cytopathic effect incubated for 5 days by Spectrophotometric based MTT assay. In kind it is functional, organism-based. The settings on record: Human immunodeficiency virus 1, RES056, MT4, 120 h. Background: Protection from cytopathic effect is a common read-out in antiviral testing.

A further data set deals with MT4. In words: Cytotoxicity against human MT4 cells assessed as reduction in cell viability incubated for 5 days by Spectrophotometric based MTT assay. In kind it is functional. The settings on record: MT4, 120 h, time 5 day. A general note: Tetrazolium dyes change colour on reduction, which living cells bring about.
Data set [3] can be described thus: Selectivity index, ratio of CC50 for cytotoxicity against human MT4 cells to EC50 for antiviral activity against wild type HIV1 IIIB infected in human MT4 cells.
Data set [4] is described as follows: Selectivity index, ratio of CC50 for cytotoxicity against human MT4 cells to EC50 for antiviral activity against HIV1 RES056 mutant infected in human MT4 cells.
Data set [5] has as its system Human immunodeficiency virus 1. In words: Antiviral activity against HIV1 harboring L100I mutant infected in human MT4 cells assessed as reduction in virus induced cytopathic effect incubated for 5 days by Spectrophotometric based MTT assay. The note with it: Human immunodeficiency virus 1, MT4, 120 h. The format is functional, organism-based.
The test system of data set [6] is Human immunodeficiency virus 1. In words: Antiviral activity against HIV1 harboring K103 N mutant infected in human MT4 cells assessed as reduction in virus induced cytopathic effect incubated for 5 days by Spectrophotometric based MTT assay. The format is functional, organism-based. The settings on record: Human immunodeficiency virus 1, MT4, 120 h.
The test system of data set [7] is Human immunodeficiency virus 1. The experiment in a line: Antiviral activity against HIV1 harboring Y181C mutant infected in human MT4 cells assessed as reduction in virus induced cytopathic effect incubated for 5 days by Spectrophotometric based MTT assay. In kind it is functional, organism-based. The settings on record: Human immunodeficiency virus 1, MT4, 120 h.

In data set [8] the test system is Human immunodeficiency virus 1. The experiment in a line: Antiviral activity against HIV1 harboring Y188L mutant infected in human MT4 cells assessed as reduction in virus induced cytopathic effect incubated for 5 days by Spectrophotometric based MTT assay. In kind it is functional, organism-based. The note with it: Human immunodeficiency virus 1, MT4, 120 h.
The test system of data set [9] is Human immunodeficiency virus 1. In words: Antiviral activity against HIV1 harboring E138K mutant infected in human MT4 cells assessed as reduction in virus induced cytopathic effect incubated for 5 days by Spectrophotometric based MTT assay. In kind it is functional, organism-based. The settings on record: Human immunodeficiency virus 1, MT4, 120 h.
The test system of data set [10] is Human immunodeficiency virus 1. The experiment in a line: Antiviral activity against HIV1 harboring F227L/V106A mutant infected in human MT4 cells assessed as reduction in virus induced cytopathic effect incubated for 5 days by Spectrophotometric based MTT assay. The note with it: Human immunodeficiency virus 1, MT4, 120 h. The format is functional, organism-based.

Turning to `COP(=O)(OC)N1CCN(c2ccc(Nc3nccc(Oc4c(C)cc(/C=C/C#N)cc4C)n3)cc2C#N)C(=O)C1`, the half-maximal effective concentration (EC50) (commonly the concentration needed to bring the measured effect to its halfway point) in [1] is 250 nM; in data set [2], greater than 23200 nM. Further, in the data set with MT4, the CC50 (usually the concentration at which the toxic effect on the cells reaches its halfway point) came out at 23200 nM. The selectivity ratio in data set [3] (MT4 cells) came to 94.

For `Cc1cc(/C=C/C#N)cc(C)c1Oc1ccnc(Nc2ccc(N3CCN(C)CC3)c(C#N)c2)n1`, the values for the EC50 in data set [1] and in data set [2] were 20 nM and greater than 3940 nM, respectively. Moreover, the CC50 in the data set on MT4 came to 3940 nM. In addition, in data set [3] (MT4 cells), the selectivity ratio was 195.

`Cc1cc(/C=C/C#N)cc(C)c1Oc1ccnc(Nc2ccc(N3CCCC3)c(C#N)c2)n1`: the EC50 in data set [1] worked out at 54 nM; in data set [2] it was 5320 nM. The cytotoxic concentration (CC50) in the data set on MT4 worked out at 270000 nM. Moreover, the selectivity ratio in data set [3] (MT4 cells) was determined as 5010; in [4] (MT4 cells), 51.

For `CSC1CN(c2ccc(Nc3nccc(Oc4c(C)cc(/C=C/C#N)cc4C)n3)cc2C#N)C1`, the EC50 in data set [1] was 6 nM; in [2], 2710 nM; in [5], 18 nM; in data set [6], 6 nM; in [7], 53 nM; in data set [8], greater than 267000 nM. The figures for the EC50 in data set [9] and in [10] were 39 nM and 150 nM, respectively. Also, the CC50 in the data set on MT4 was greater than 267000 nM. Moreover, the selectivity ratio is greater than 45200 in data set [3] (MT4 cells) and greater than 99 in data set [4] (MT4 cells).

On to `Cc1cc(/C=C/C#N)cc(C)c1Oc1ccnc(Nc2ccc(N3CCC(F)(F)CC3)c(C#N)c2)n1`, for which the concentration giving a half-maximal response (EC50) was found to be 31 nM in data set [1] and 1270 nM in data set [2]. In addition, the 50% cytotoxic concentration (CC50) in the data set with MT4 is greater than 257000 nM. For the same compound, in data set [3] (MT4 cells), the selectivity ratio was greater than 8290.

With `CC(=O)C1CCN(c2ccc(Nc3nccc(Oc4c(C)cc(/C=C/C#N)cc4C)n3)cc2C#N)CC1`, the EC50 was 5 nM in [1]; 1490 nM in [2]; 65 nM in [5]; 12 nM in [6]; 150 nM in data set [7]; greater than 5120 nM in data set [8]. Besides, the results for the EC50 in data set [9] and in data set [10] were 110 nM and 75 nM, respectively. Further, in the data set on MT4, the CC50 came out at 5120 nM. Also, the results for the selectivity ratio in [3] (MT4 cells) and in data set [4] (MT4 cells) were 1070 and 3, respectively.

`Cc1cc(/C=C/C#N)cc(C)c1Oc1ccnc(Nc2ccc(N3CC(F)C3)c(C#N)c2)n1`: the concentration giving a half-maximal response (EC50) is 9 nM in [1]; 520 nM in [2]; 48 nM in data set [5]; 10 nM in [6]; 49 nM in data set [7]; greater than 170000 nM in data set [8]. Moreover, the half-maximal effective concentration (EC50) in data set [9] stood at 63 nM; in data set [10] it was 330 nM. In the data set on MT4, the CC50 turned out to be 170000 nM. The figures for the selectivity ratio in data set [3] (MT4 cells) and in data set [4] (MT4 cells) were 20000 and 328, respectively.

Regarding `COC1CN(c2ccc(Nc3nccc(Oc4c(C)cc(/C=C/C#N)cc4C)n3)cc2C#N)C1`, the figures for the EC50 in data set [1] and in [2] were 22 nM and greater than 44200 nM, respectively. For the same compound, in the data set on MT4, the CC50 is greater than 44200 nM. The selectivity ratio in data set [3] (MT4 cells) was greater than 2050.

With `Cc1cc(/C=C/C#N)cc(C)c1Oc1ccnc(Nc2ccc(N3CCSCC3=O)c(C#N)c2)n1`, the EC50 in data set [1] amounted to 13 nM; in [2] it was 920 nM. For the same compound, the CC50 in the data set with MT4 stood at 45300 nM. Moreover, the selectivity ratio in [3] (MT4 cells) came out at 3410; in [4] (MT4 cells) it was 49.

Take `Cc1cc(/C=C/C#N)cc(C)c1Oc1ccnc(Nc2ccc(N3CC(C#N)C3)c(C#N)c2)n1`: the figures for the EC50 in data set [1] and in [2] were 13 nM and greater than 44700 nM, respectively. The CC50 in the data set with MT4 is greater than 44700 nM. In addition, the selectivity ratio in data set [3] (MT4 cells) is greater than 3480.

With `Cc1cc(/C=C/C#N)cc(C)c1Oc1ccnc(Nc2ccc(N3CCCCC3)c(C#N)c2)n1`, the EC50 in [1] amounted to 43 nM; in data set [2] it was 4480 nM. In addition, the CC50 in the data set on MT4 is greater than 277000 nM. Besides, the selectivity ratio in data set [3] (MT4 cells) is greater than 6380; in [4] (MT4 cells), greater than 62.

For `Cc1cc(/C=C/C#N)cc(C)c1Oc1ccnc(Nc2ccc(N3CCC(C(F)(F)F)CC3)c(C#N)c2)n1`, the results for the EC50 in data set [1] and in data set [2] were 40 nM and 17600 nM, respectively. In addition, the 50% cytotoxic concentration (CC50) in the data set on MT4 is greater than 241000 nM. In addition, the selectivity ratio in [3] (MT4 cells) is greater than 6100; in data set [4] (MT4 cells), greater than 14.

Turning to `Cc1cc(/C=C/C#N)cc(C)c1Oc1ccnc(Nc2ccc(N3CCC(S(C)(=O)=O)CC3)c(C#N)c2)n1`, the EC50 in data set [1] was 9 nM; in [2], 820 nM; in data set [5] it was 35 nM; in data set [6] it was 18 nM; in data set [7], 40 nM; in data set [8], 2830 nM. Moreover, the EC50 amounted to 42 nM in data set [9] and 65 nM in data set [10]. The CC50 in the data set with MT4 came to 6440 nM. Moreover, the selectivity ratio amounted to 725 in data set [3] (MT4 cells) and 8 in [4] (MT4 cells).

As to `Cc1cc(/C=C/C#N)cc(C)c1Oc1ccnc(Nc2ccc(N3CCC(F)CC3)c(C#N)c2)n1`, the EC50 in [1] stood at 14 nM; in data set [2] it was 1480 nM. In addition, the CC50 in the data set with MT4 is greater than 267000 nM. For the same compound, the selectivity ratio was greater than 18800 in [3] (MT4 cells) and greater than 181 in data set [4] (MT4 cells).

With `Cc1cc(/C=C/C#N)cc(C)c1Oc1ccnc(Nc2ccc(N3CC[S+]([O-])CC3=O)c(C#N)c2)n1` (centres undefined), the EC50 is 15 nM in data set [1] and 2810 nM in data set [2]. Besides, the CC50 in the data set with MT4 is 26400 nM. Also, the selectivity ratio was 1780 in [3] (MT4 cells) and 9 in [4] (MT4 cells).

Turning to `COC1CCN(c2ccc(Nc3nccc(Oc4c(C)cc(/C=C/C#N)cc4C)n3)cc2C#N)CC1`, the half-maximal effective concentration (EC50) in data set [1] is 6 nM; in data set [2], greater than 6890 nM; in data set [5], 130 nM; in data set [6], 13 nM; in data set [7], 160 nM; in data set [8] it was 4860 nM. In addition, the EC50 amounted to 190 nM in [9] and 150 nM in [10]. Besides, in the data set with MT4, the CC50 came to 6890 nM. Moreover, the selectivity ratio in [3] (MT4 cells) was determined as 1080.

As for `Cc1cc(/C=C/C#N)cc(C)c1Oc1ccnc(Nc2ccc(N3CCN(C=O)CC3)c(C#N)c2)n1`, the EC50 worked out at 4 nM in [1]; 930 nM in data set [2]; 16 nM in data set [5]; 20 nM in [6]; 53 nM in data set [7]; 2980 nM in data set [8]. In addition, the half-maximal effective concentration (EC50) in [9] amounted to 48 nM; in data set [10], 98 nM. The CC50 with MT4 was 15900 nM. The figures for the selectivity ratio in [3] (MT4 cells) and in data set [4] (MT4 cells) were 4350 and 17, respectively.

As to `O=C1Nc2ccc(Cl)cc2[C@@](C#CC2CC2)(C(F)(F)F)O1` [EFAVIRENZ], the concentration for a half-maximal effect (EC50) in [2] amounted to 450 nM; in data set [5], 35 nM; in [6], 100 nM; in data set [7], 6 nM; in data set [10], 290 nM. The half-maximal cytotoxic concentration (CC50) in the data set on MT4 is greater than 6340 nM.

With `Cc1cc(C#N)cc(C)c1Oc1nc(Nc2ccc(C#N)cc2)nc(N)c1Br` [ETRAVIRINE], the EC50 in [2] came out at 81 nM; in data set [6], 5 nM; in data set [8], 35 nM; in data set [9] it was 25 nM; in [10] it was 28 nM. The CC50 with MT4 is greater than 4590 nM.

Consider `Cc1ccnc2c1NC(=O)c1cccnc1N2C1CC1` [NEVIRAPINE], for which the EC50 was greater than 15000 nM in [2]; 3450 nM in [5]; 9010 nM in [6]; 4880 nM in data set [7]; greater than 15000 nM in data set [8]; greater than 15000 nM in data set [10]. Besides, the CC50 in the data set on MT4 is greater than 15000 nM.

With `Cc1cn([C@H]2C[C@H](N=[N+]=[N-])[C@@H](CO)O2)c(=O)[nH]c1=O` [ZIDOVUDINE], the EC50 in data set [1] and in data set [2] was 35 nM each time. The CC50 in the data set on MT4 was greater than 7480 nM. For the same compound, the selectivity ratio in data set [3] (mt4) is greater than 212; in data set [4] (mt4) it was greater than 214.
